Measurements from ChEMBL document CHEMBL5236606, “Synthesis, Structure-Activity Relationships, and In Vivo Evaluation of Novel C-17 Amine Derivatives Based on GSK3640254 as HIV-1 Maturation Inhibitors with Broad Spectrum Activity” (J Med Chem, 2022).

Legend:
[1] = Cytotoxicity against human MT2 cells assessed as reduction in cell viability; format: toxicity, cell-based
[2] = MRT in Sprague-Dawley rat at 1 mg/kg, iv by LC-MS/MS analysis; format: ADME, organism-based; details: in vivo
[3] = Clearance in Sprague-Dawley rat at 1 mg/kg, iv by LC-MS/MS analysis; format: ADME, organism-based; details: in vivo
[4] = system: Human immunodeficiency virus 1; test: Antiviral activity against wild type HIV-1 NLRepRlucP373S harboring R361K/V362I/L363M mutant infected in human MT2 cells assessed as inhibition of viral growth measured after 4 to 5 days by Dual luciferase reporter assay; format: functional, organism-based; details: Human immunodeficiency virus 1, NLRepRlucP373S
[5] = target: Albumin (Homo sapiens, UniProt P02768); test: Protein binding in human serum albumin assessed as fraction bound at 53 nM incubated for 1 hrs by ultracentrifugation method; format: ADME, cell-free; details: read-out: PPB (converted)
[6] = Metabolic stability in dog liver microsomes assessed as half life at 0.5 uM in presence of NADPH by LC-MS/MS analysis; format: ADME, Canis lupus familiaris, Microsome
[7] = system: Human immunodeficiency virus 1; test: Antiviral activity against wild type HIV-1 NLRepRlucP373S harboring T332S/V362I/prR41G mutant infected in human MT2 cells assessed as inhibition of viral growth measured after 4 to 5 days by Dual luciferase reporter assay; format: functional, organism-based; details: Human immunodeficiency virus 1, NLRepRlucP373S
[8] = system: Human immunodeficiency virus 1; test: Antiviral activity against wild type HIV-1 NLRepRlucP373S harboring A326T/V362I/V370A mutant infected in human MT2 cells assessed as inhibition of viral growth measured after 4 to 5 days by Dual luciferase reporter assay; format: functional, organism-based; details: Human immunodeficiency virus 1, NLRepRlucP373S
[9] = system: Human immunodeficiency virus 1; test: Antiviral activity against wild type HIV-1 NLRepRlucP373S harboring deltaV370 mutant infected in human MT2 cells assessed as inhibition of viral growth measured after 4 to 5 days by Dual luciferase reporter assay; format: functional, organism-based; details: Human immunodeficiency virus 1, NLRepRlucP373S
[10] = system: Human immunodeficiency virus 1; test: Antiviral activity against wild type HIV-1 NLRepRlucP373S infected in human MT2 cells assessed as inhibition of viral growth measured after 4 to 5 days by Dual luciferase reporter assay; format: functional, organism-based; details: Human immunodeficiency virus 1, NLRepRlucP373S
[11] = Metabolic stability in human liver microsomes assessed as half life at 0.5 uM in presence of NADPH by LC-MS/MS analysis; format: ADME, Microsome
[12] = Fold resistance, ratio of EC50 for antiviral activity against wild type HIV-1 NLRepRlucP373S infected in human MT2 cells assessed as inhibition of viral growth in presence of 10% FBS and 40% human serum supplemented with 27mg/mL of human serum albumin to EC50 for antiviral activity against wild type HIV-1 NLRepRlucP373S infected in human MT2 cells assessed as inhibition of viral growth; format: functional, Human immunodeficiency virus 1
[13] = Volume of distribution at steady state in Sprague-Dawley rat at 1 mg/kg, iv by LC-MS/MS analysis; format: ADME, organism-based; details: in vivo, read-out: Vdss
[14] = Metabolic stability in rat liver microsomes assessed as half life at 0.5 uM in presence of NADPH by LC-MS/MS analysis; format: ADME, Microsome
[15] = system: Human immunodeficiency virus 1; test: Antiviral activity against wild type HIV-1 NLRepRlucP373S infected in human MT2 cells assessed as inhibition of viral growth measured after 4 to 5 days in presence of 10% FBS and 40% human serum supplemented with 27 mg/mL of human serum albumin by Dual luciferase reporter assay; format: functional, organism-based; details: Human immunodeficiency virus 1, NLRepRlucP373S
[16] = Solubility of the compound in FeSSIF at pH 5.0; format: ADME
[17] = Solubility of compound in FaSSIF at pH 6.5; format: ADME
[18] = system: Human immunodeficiency virus 1; test: Antiviral activity against wild type HIV-1 NLRepRlucP373S harboring V362I/V370A mutant infected in human MT2 cells assessed as inhibition of viral growth measured after 4 to 5 days by Dual luciferase reporter assay; format: functional, organism-based; details: Human immunodeficiency virus 1, NLRepRlucP373S

Sequence of Albumin (P02768 whole entry): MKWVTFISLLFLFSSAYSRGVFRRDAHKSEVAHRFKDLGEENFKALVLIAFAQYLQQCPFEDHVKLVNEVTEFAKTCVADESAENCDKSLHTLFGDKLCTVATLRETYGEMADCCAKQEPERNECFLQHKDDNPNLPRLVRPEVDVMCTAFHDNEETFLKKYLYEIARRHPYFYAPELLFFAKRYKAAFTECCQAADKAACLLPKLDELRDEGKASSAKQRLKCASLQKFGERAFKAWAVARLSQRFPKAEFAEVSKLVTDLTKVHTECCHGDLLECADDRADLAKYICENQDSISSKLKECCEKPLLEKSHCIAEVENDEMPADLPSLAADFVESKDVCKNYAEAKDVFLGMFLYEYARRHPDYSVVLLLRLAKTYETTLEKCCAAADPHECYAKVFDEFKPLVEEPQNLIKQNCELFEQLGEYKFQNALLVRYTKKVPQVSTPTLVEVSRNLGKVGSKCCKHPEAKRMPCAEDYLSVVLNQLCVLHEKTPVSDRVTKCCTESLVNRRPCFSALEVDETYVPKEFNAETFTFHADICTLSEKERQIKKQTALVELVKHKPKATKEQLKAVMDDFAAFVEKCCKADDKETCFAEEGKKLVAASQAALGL

Compound | CC50 [1] | EC50 [7] | EC50 [10] | fold change (FC) [12] | EC50 [15] | also measured
C=C(C)[C@@H]1CC[C@]2(NCCN3CCS(=O)(=O)CC3)CC[C@]3(C)[C@H](CC[C@@H]4[C@@]5(C)CC=C(C6=CC[C@@](CF)(C(=O)O)CC6)C(C)(C)[C@@H]5CC[C@]43C)[C@@H]12 | 15600 nM | 7 nM | 3 nM | 4.6 |  | MRT [2]: 4.9 h; clearance [3]: 6.5 mL/min/kg; EC50 [4]: 3 nM; fraction unbound at 1 h, 0.053 µM [5]: 0.14; half-life at 0.5 µM [6]: 1.47 h; EC50 [8]: 26 nM; EC50 [9]: 3 nM; half-life at 0.5 µM [11]: 1.83 h; Vd [13]: 1.8 L/kg; half-life at 0.5 µM [14]: 1.45 h
C=C(C)[C@@H]1CC[C@]2(NCCC3(O)CCS(=O)(=O)CC3)CC[C@]3(C)[C@H](CC[C@@H]4[C@@]5(C)CC=C(C6=CC[C@](CF)(C(=O)O)CC6)C(C)(C)[C@@H]5CC[C@]43C)[C@@H]12 | 14000 nM | 7.7 nM | 2.3 nM | 83 | 19 nM | 
C=C(C)[C@@H]1CC[C@]2(NCCC3(O)CCN(S(C)(=O)=O)CC3)CC[C@]3(C)[C@H](CC[C@@H]4[C@@]5(C)CC=C(C6=CC[C@](CF)(C(=O)O)CC6)C(C)(C)[C@@H]5CC[C@]43C)[C@@H]12 | 23000 nM | 8.3 nM | 2.6 nM | 73 | 19 nM | 
C=C(C)[C@@H]1CC[C@]2(NCCN3CCOCC3)CC[C@]3(C)[C@H](CC[C@@H]4[C@@]5(C)CC=C(C6=CC[C@](CF)(C(=O)O)CC6)C(C)(C)[C@@H]5CC[C@]43C)[C@@H]12 | 7700 nM | 18 nM | 4.5 nM | 12 | 53 nM | 
C=C(C)[C@@H]1CC[C@]2(NCCCC(C)(C)O)CC[C@]3(C)[C@H](CC[C@@H]4[C@@]5(C)CC=C(C6=CC[C@](CF)(C(=O)O)CC6)C(C)(C)[C@@H]5CC[C@]43C)[C@@H]12 | 7500 nM | 44 nM | 14 nM | 6.3 | 84 nM | 
C=C(C)[C@@H]1CC[C@]2(NCC[C@]3(O)CC[C@H](S(C)(=O)=O)CC3)CC[C@]3(C)[C@H](CC[C@@H]4[C@@]5(C)CC=C(C6=CC[C@](CF)(C(=O)O)CC6)C(C)(C)[C@@H]5CC[C@]43C)[C@@H]12 | 16000 nM | 4.6 nM | 1.5 nM | 4.1 | 5.9 nM | 
C=C(C)[C@@H]1CC[C@]2(NCC[C@]3(O)CC[C@@](C)(O)CC3)CC[C@]3(C)[C@H](CC[C@@H]4[C@@]5(C)CC=C(C6=CC[C@](CF)(C(=O)O)CC6)C(C)(C)[C@@H]5CC[C@]43C)[C@@H]12 | 18000 nM | 6.1 nM | 1.7 nM | 9.8 | 16 nM | 
C=C(C)[C@@H]1CC[C@]2(NCCC(C)(C)O)CC[C@]3(C)[C@H](CC[C@@H]4[C@@]5(C)CC=C(C6=CC[C@](CF)(C(=O)O)CC6)C(C)(C)[C@@H]5CC[C@]43C)[C@@H]12 | 8300 nM | 8.3 nM | 1.9 nM | 14 | 26 nM | 
C=C(C)[C@@H]1CC[C@]2(NCCN3CCS(=O)(=O)CC3)CC[C@]3(C)[C@H](CC[C@@H]4[C@@]5(C)CC=C(C6=CCC(CF)(C(=O)O)CC6)C(C)(C)[C@@H]5CC[C@]43C)[C@@H]12 (single isomer, unassigned) |  |  |  | 3.3 |  | 
C=C(C)[C@@H]1CC[C@]2(NCCC3(O)COC3)CC[C@]3(C)[C@H](CC[C@@H]4[C@@]5(C)CC=C(C6=CC[C@@](CF)(C(=O)O)CC6)C(C)(C)[C@@H]5CC[C@]43C)[C@@H]12 | 13000 nM | 12 nM | 1.9 nM | 14 | 27 nM | 
C=C(C)[C@@H]1CC[C@]2(NCCC3(O)CCOCC3)CC[C@]3(C)[C@H](CC[C@@H]4[C@@]5(C)CC=C(C6=CC[C@](CF)(C(=O)O)CC6)C(C)(C)[C@@H]5CC[C@]43C)[C@@H]12 | 9500 nM | 8.2 nM | 2 nM | 15 | 30 nM | 
C=C(C)[C@@H]1CC[C@]2(NCC(C)(C)O)CC[C@]3(C)[C@H](CC[C@@H]4[C@@]5(C)CC=C(C6=CC[C@](CF)(C(=O)O)CC6)C(C)(C)[C@@H]5CC[C@]43C)[C@@H]12 | 8700 nM | 50 nM | 15 nM | 9.7 | 147 nM | 
C=C(C)[C@@H]1CC[C@]2(NCCC3(O)CCC3)CC[C@]3(C)[C@H](CC[C@@H]4[C@@]5(C)CC=C(C6=CC[C@](CF)(C(=O)O)CC6)C(C)(C)[C@@H]5CC[C@]43C)[C@@H]12 | 12000 nM | 16 nM | 5.6 nM | 6.4 | 36 nM | 
C=C(C)[C@@H]1CC[C@]2(NCCC3CCOCC3)CC[C@]3(C)[C@H](CC[C@@H]4[C@@]5(C)CC=C(C6=CC[C@](CF)(C(=O)O)CC6)C(C)(C)[C@@H]5CC[C@]43C)[C@@H]12 | 13000 nM | 160 nM | 30 nM | 33 | 980 nM | 
C=C(C)[C@@H]1CC[C@]2(NCCN3CCS(=O)(=O)CC3)CC[C@]3(C)[C@H](CC[C@@H]4[C@@]5(C)CC=C(C6=CC[C@@](CF)(C(=O)O)CC6)C(C)(C)[C@@H]5CC[C@]43C)[C@@H]12.Cl.Cl |  |  |  |  |  | solubility [16]: 800 µM; solubility [17]: 310 µM
C=C(C)[C@@H]1CC[C@]2(NCC[C@]3(O)CC[C@](C)(O)CC3)CC[C@]3(C)[C@H](CC[C@@H]4[C@@]5(C)CC=C(C6=CC[C@@](CF)(C(=O)O)CC6)C(C)(C)[C@@H]5CC[C@]43C)[C@@H]12 | 11000 nM | 9.2 nM | 3 nM | 4.6 | 14 nM | 
C=C(C)[C@@H]1CC[C@]2(NCCN3CCC(C)(O)CC3)CC[C@]3(C)[C@H](CC[C@@H]4[C@@]5(C)CC=C(C6=CC[C@](CF)(C(=O)O)CC6)C(C)(C)[C@@H]5CC[C@]43C)[C@@H]12 | 14000 nM | 5.6 nM | 1.2 nM | 16 | 19 nM | 
C=C(C)[C@@H]1CC[C@]2(NCCN3CCN(S(C)(=O)=O)CC3)CC[C@]3(C)[C@H](CC[C@@H]4[C@@]5(C)CC=C(C6=CC[C@](CF)(C(=O)O)CC6)C(C)(C)[C@@H]5CC[C@]43C)[C@@H]12 | 11400 nM | 5.7 nM | 2 nM | 9 | 18 nM | 
C=C(C)[C@@H]1CC[C@]2(NCC[C@]3(O)CC[C@@H](S(C)(=O)=O)CC3)CC[C@]3(C)[C@H](CC[C@@H]4[C@@]5(C)CC=C(C6=CC[C@@](CF)(C(=O)O)CC6)C(C)(C)[C@@H]5CC[C@]43C)[C@@H]12 | 17000 nM | 6.5 nM | 2.3 nM | 13 | 30 nM | 
C=C(C)[C@@H]1CC[C@]2(NCCN3CCS(=O)(=O)CC3)CC[C@]3(C)[C@H](CC[C@@H]4[C@@]5(C)CC=C(c6ccc(C(=O)O)cc6)C(C)(C)[C@@H]5CC[C@]43C)[C@@H]12 [BMS-955176] | 13000 nM | 700 nM |  | 2 |  | EC50 [9]: 6 nM; EC50 [18]: 3 nM
C=C(C)[C@@H]1CC[C@]2(NCCC(C)C)CC[C@]3(C)[C@H](CC[C@@H]4[C@@]5(C)CC=C(C6=CC[C@](CF)(C(=O)O)CC6)C(C)(C)[C@@H]5CC[C@]43C)[C@@H]12 | 16000 nM | 930 nM | 120 nM | 15 | 1760 nM | 
C=C(C)[C@@H]1CC[C@]2(NCCC3(O)CCN(C(C)=O)CC3)CC[C@]3(C)[C@H](CC[C@@H]4[C@@]5(C)CC=C(C6=CC[C@](CF)(C(=O)O)CC6)C(C)(C)[C@@H]5CC[C@]43C)[C@@H]12 | 14000 nM | 6.7 nM | 1.7 nM | 14 | 24 nM | 
C=C(C)[C@@H]1CC[C@]2(NCCC3CCS(=O)(=O)CC3)CC[C@]3(C)[C@H](CC[C@@H]4[C@@]5(C)CC=C(C6=CC[C@](CF)(C(=O)O)CC6)C(C)(C)[C@@H]5CC[C@]43C)[C@@H]12 | 14000 nM | 14 nM | 3.9 nM | 14 | 54 nM | 
